The test has as its target Tyrosine-protein kinase BTK (Homo sapiens, UniProt Q06187). The experiment in a line: To each well of a black non-binding surface Corning 384-well microplate (Corning Catalog #3820), 5 nL of compound (2000 fold dilution in final assay volume of 10 μL) was dispensed, followed by the addition of 7.5 μL of 1× kinase buffer (50 mM Hepes 7.5, 10 mM MgCl2, 0.01% Brij-35, 1 mM EGTA, 0.05% BSA & 1 mM DTT) containing 5.09 pg/μL (66.67 pM) of BTK enzyme (recombinant protein from baculovirus-transfected Sf9 cells: full-length BTK, 6HIS-tag cleaved). Following a 60 minute compound & enzyme incubation, each reaction was initiated by the addition of 2.5 μL 1× kinase buffer containing 8 μM biotinylated A5 peptide (Biotin-EQEDEPEGDYFEWLE-NH2), and 100 μM ATP. The final reaction in each well of 10 μL consists of 50 pM hBTK, 2 μM biotin-A5-peptide, and 25 μM ATP. Phosphorylation reactions were allowed to proceed for 120 minutes. Reactions were immediately quenched by the addition of 20 uL of 1× quench buffer (15 mM EDTA, 25 mM Hepes 7.3, and 0.1% Triton X-100) containing detection reagents (0.626 nM of LANCE-Eu-W1024-anti-phosphoTyrosine antibody, PerkinElmer and 86.8 nM of Streptavidin-conjugated Dylight 650, Dyomics/ThermoFisher Scientific). After 60 minutes incubation with detection reagents, reaction plates were read on a PerkinElmer EnVision plate reader using standard TR-FRET protocol. Briefly, excitation of donor molecules (Eu-chelate:anti-phospho-antibody) with a laser light source at 337 nm produces energy that can be transferred to Dylight-650 acceptor molecules if this donor:acceptor pair is within close proximity. Fluorescence intensity at both 665 nm (acceptor) and 615 nm (donor) are measured and a TR-FRET ratio calculated for each well (acceptor intensity/donor intensity).

SMILES strings stand for the structures.

Tyrosine-protein kinase BTK, sequence (Q06187 whole entry): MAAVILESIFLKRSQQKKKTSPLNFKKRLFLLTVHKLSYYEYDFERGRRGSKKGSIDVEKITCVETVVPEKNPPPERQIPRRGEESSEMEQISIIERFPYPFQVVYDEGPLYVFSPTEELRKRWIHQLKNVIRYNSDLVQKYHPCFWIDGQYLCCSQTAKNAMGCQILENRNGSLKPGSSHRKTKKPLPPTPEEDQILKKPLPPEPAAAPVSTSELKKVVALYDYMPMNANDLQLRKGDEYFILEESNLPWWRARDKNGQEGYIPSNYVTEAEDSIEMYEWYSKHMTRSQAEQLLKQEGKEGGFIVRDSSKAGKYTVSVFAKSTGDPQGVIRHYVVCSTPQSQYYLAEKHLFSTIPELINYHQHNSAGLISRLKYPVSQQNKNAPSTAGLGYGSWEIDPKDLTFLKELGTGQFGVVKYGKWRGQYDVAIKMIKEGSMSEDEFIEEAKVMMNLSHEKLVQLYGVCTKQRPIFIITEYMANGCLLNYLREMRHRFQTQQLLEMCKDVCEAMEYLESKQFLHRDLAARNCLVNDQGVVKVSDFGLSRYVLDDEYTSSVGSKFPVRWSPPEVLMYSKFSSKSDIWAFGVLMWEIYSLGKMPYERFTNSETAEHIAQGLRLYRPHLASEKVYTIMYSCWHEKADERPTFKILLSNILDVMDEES

As for `Nc1nccc2c([C@@H]3CCCN(C(=O)C4CC(F)(F)C4)C3)nn(-c3ccc(Oc4ccccc4)cc3)c12`, the IC50 is 8.9 nM.

In the case of `COCCOCC(=O)N1CCC[C@@H](c2nn(-c3ccc(Oc4ccccc4)cc3)c3c(N)nccc23)C1`, the IC50 was 3.5 nM.

Turning to `Cc1ncn(C)c1C(=O)N1CCC[C@@H](c2nn(-c3ccc(Oc4ccccc4)cc3)c3c(N)nccc23)C1`, the IC50 was 9.2 nM.

`C[C@H](O)C(=O)N1CCC[C@@H](c2nn(-c3ccc(Oc4ccccc4)cc3)c3c(N)nccc23)C1`: the IC50 was 2.3 nM.

Regarding `CC(C)C(=O)N1CCC[C@@H](c2nn(-c3ccc(Oc4ccccc4)cc3)c3c(N)nccc23)C1`, the IC50 is 3.7 nM.

Turning to `CO[C@@H](C)C(=O)N1CCC[C@@H](c2nn(-c3ccc(Oc4ccccc4)cc3)c3c(N)nccc23)C1`, the IC50 is 3.9 nM.

For `C[C@@H](O)C(=O)N1CCC[C@@H](c2nn(-c3ccc(Oc4ccccc4)cc3)c3c(N)nccc23)C1`, the IC50 is 1 nM.

For `CC#CC(=O)N1CCC[C@@H](c2nn(-c3ccc(Oc4ccccc4)cc3)c3c(N)nccc23)C1`, the IC50 is 1 nM.

In the case of `C=CC(=O)N1CCC[C@@H](c2nn(-c3ccc(Oc4ccccc4)cc3)c3c(N)nccc23)C1`, the IC50 is 0.66 nM.

In the case of `CCOCC(=O)N1CCC[C@@H](c2nn(-c3ccc(Oc4ccccc4)cc3)c3c(N)nccc23)C1`, the IC50 is 3.5 nM.

Consider `Nc1nccc2c([C@@H]3CCCNC3)nn(-c3ccc(Oc4ccccc4)cc3)c12`, for which the IC50 was 30.8 nM.

`CO[C@H](C)C(=O)N1CCC[C@@H](c2nn(-c3ccc(Oc4ccccc4)cc3)c3c(N)nccc23)C1`: the IC50 was 5.5 nM.

With `CC1(C(=O)N2CCC[C@@H](c3nn(-c4ccc(Oc5ccccc5)cc4)c4c(N)nccc34)C2)CC1`, the IC50 is 3.3 nM.

As to `CCC(=O)N1CCC[C@@H](c2nn(-c3ccc(Oc4ccccc4)cc3)c3c(N)nccc23)C1`, the IC50 was 2 nM.

For `Nc1nccc2c([C@@H]3CCCN(C(=O)C4(O)CC4)C3)nn(-c3ccc(Oc4ccccc4)cc3)c12`, the IC50 was 3 nM.

As to `Cc1noc(C)c1C(=O)N1CCC[C@@H](c2nn(-c3ccc(Oc4ccccc4)cc3)c3c(N)nccc23)C1`, the IC50 is 13.7 nM.

With `N#CC1(C(=O)N2CCC[C@@H](c3nn(-c4ccc(Oc5ccccc5)cc4)c4c(N)nccc34)C2)CC1`, the IC50 was 11.8 nM.

On to `Cn1cncc1C(=O)N1CCC[C@@H](c2nn(-c3ccc(Oc4ccccc4)cc3)c3c(N)nccc23)C1`, for which the IC50 is 2.7 nM.

With `COCC(=O)N1CCC[C@@H](c2nn(-c3ccc(Oc4ccccc4)cc3)c3c(N)nccc23)C1`, the IC50 is 2.7 nM.

As for `COCCC(=O)N1CCC[C@@H](c2nn(-c3ccc(Oc4ccccc4)cc3)c3c(N)nccc23)C1`, the IC50 is 1.8 nM.

`Nc1nccc2c([C@@H]3CCCN(C(=O)C4CCC4)C3)nn(-c3ccc(Oc4ccccc4)cc3)c12`: the IC50 is 3.5 nM.

Consider `CC(=O)N1CCC[C@@H](c2nn(-c3ccc(Oc4ccccc4)cc3)c3c(N)nccc23)C1`, for which the IC50 is 2 nM.

Turning to `Nc1nccc2c([C@@H]3CCCN(C(=O)C4CC4)C3)nn(-c3ccc(Oc4ccccc4)cc3)c12`, the concentration for half-maximal inhibition (IC50) is 3.3 nM.

One may read the IC50 as the concentration at which inhibition is half-maximal.

The values above are taken from ChEMBL document CHEMBL5726231, “Btk inhibitors” (2017).
